Reference: patent EP4745130A1, “CRYSTAL FORMS OF TUBULIN-SRC DUAL-TARGETING INHIBITOR, PREPARATION METHOD THEREFOR AND USE THEREOF” (Hubei Bio-Pharmaceutical Industrial Technological Institute …, priority 2023, dated 2025)
Where a name gives a salt, the structure may show the parent alone.

What was measured:
[1] = Hygroscopicity test by dynamic vapor sorption (DVS); assay type: physicochemical; settings: DVS, 25°C, 0%RH to 95%RH
Protocol: The dynamic vapor sorption (DVS) curve was collected on DVS IntrInsic from SMS (surface measurement systems). The relative humidity at 25°C was corrected using the deliquescence points of LiCl, Mg(NO3)2, and KCl. Table 18 DVS test parameters
The percentage change in sample mass was collected under constant temperature at 25°C as humidity varied from 0%RH to 95%RH.

[2] = Solid-state stability (XRPD and HPLC after open storage); assay type: physicochemical; settings: for Crystal form: XRPD
Protocol: The purity test, dynamic solubility test, and stability test in the assay were measured using an Agilent 1260 high-performance liquid chromatograph, and the salt formation molar ratio of ions was tested by ion chromatography, and the analytical conditions are shown in Table 19 and Table 20. Table 19 High-performance liquid chromatography test conditions

[3] = Dynamic solubility experiment at 37°C (water, SGF, FaSSIF, FeSSIF); settings: for S: solubility: solid feed 10 mg/mL; for pH: pH value of the filtrate
Protocol: Rotating mixing was carried out at 37°C at a solid feed concentration of 10 mg/mL (calculated as the compound of Formula I). […] After sampling at each time point, the samples were centrifuged (10000 rpm) and filtered (0.45 µm PTFE filter head), and the HPLC concentration and pH value of the filtrate were measured.
100 mg of NaCl and 50 mg of Triton X-100 were weighed into a 50 mL volumetric flask, and purified water was added to complete dissolution. 816 µL of 1 M hydrochloric acid was added thereto, and the pH was adjusted to 1.8 with 1 M hydrochloric acid or 1 M NaOH solution. Purified water was added to make up to volume.
340 mg of anhydrous NaH2PO4 and 620 mg of NaCl were weighed into a 100 mL volumetric flask. Purified water was added to complete dissolution, followed by addition of 55.44 µL of 50% NaOH solution, and the pH was adjusted to 6.5 using 1M HCl or 1M NaOH solution. Purified water was added to make up to volume. 110 mg of SIF powder was then weighed into a 50 mL volumetric flask, added with the above solution to complete dissolution and make up to volume.
0.82 mL of glacial acetic acid and 1.18 g of NaCl were added to a 100 mL volumetric flask. Purified water was added to complete dissolution, followed by addition of 528 µL of 50% NaOH solution, and the pH was adjusted to 5.0 using 1M HCl or 1M NaOH solution. Purified water was added to make up to volume. 560 mg of SIF powder was then weighed into a 50 mL volumetric flask, added with the above solution to complete dissolution and make up to volume.

[4] = Heating / variable temperature XRPD (VT-XRPD), crystal form conversion; assay type: physicochemical
Protocol: The XRPD pattern was collected on an X-ray powder diffraction analyzer produced by PANalytacal, and the scanning parameters are shown in Table 16. Table 16 XRPD test parameters
The free form crystal form B sample was obtained by dissolving the compound of Formula I in MeOH, removing the solvent by rotary evaporation under reduced pressure, and then transferring the resulting gel-like sample for vacuum drying at 50°C. The XRPD and TGA/DSC characterization results are shown in FIGS. 4-6, and the XRPD diffraction peak data of the free form crystal form B are shown in Table 23. […] The TGA weight loss of the free form crystal form B is low, and the free form crystal form B is an anhydrous crystal form.
Combined with the TGA/DSC and ^1H NMR results of the crystal form A of the phosphate salt, the crystal form A of the phosphate salt was a hydrate, which dehydrated under heating conditions and converted to anhydrous crystal form B of the phosphate salt.

[5] = 25°C/60%RH/open, 1 week, listed as Crystal form A ofp-toluenesulfonate salt
[6] = 40°C/75%RH/open, 1 week, listed as Crystal form A ofp-toluenesulfonate salt

## Cc1cc(OCCN2C[C@H]3COC[C@H]3C2)ccc1-c1ccc(CC(=O)NCc2ccccc2)nc1
[1]; listed as crystal form A of the p-toluenesulfonate salt
  hygroscopicity: slightly hygroscopic
[2]; [5]
  Crystal form: Crystal form A of p-toluenesulfonate salt
  Purity (area%): 97.38 area%
  Relative to initial (%): 99.7%
[2]; [6]
  Crystal form: Crystal form A of p-toluenesulfonate salt
  Purity (area%): 97.38 area%
  Relative to initial (%): 99.7%
[2]; Initial, listed as Crystal form A ofp-toluenesulfonate salt
  Purity (area%): 97.67 area%
[3]; FaSSIF, 1 hour, listed as Crystal form A ofp-toluenesulfonate salt, 60 min
  S: solubility: 2780 µg/mL
[3]; FaSSIF, 4 hours, listed as Crystal form A ofp-toluenesulfonate salt, 240 min
  S: solubility: 2780 µg/mL
[3]; FaSSIF, 24 hours, listed as Crystal form A ofp-toluenesulfonate salt, 1440 min
  S: solubility: 2680 µg/mL
[3]; FeSSIF, 1 hour, listed as Crystal form A ofp-toluenesulfonate salt, 60 min
  S: solubility: 4120 µg/mL
[3]; FeSSIF, 4 hours, listed as Crystal form A ofp-toluenesulfonate salt, 240 min
  S: solubility: 2510 µg/mL
[3]; FeSSIF, 24 hours, listed as Crystal form A ofp-toluenesulfonate salt, 1440 min
  S: solubility: 2300 µg/mL
[3]; H2O, 1 hour, listed as Crystal form A ofp-toluenesulfonate salt, 60 min
  S: solubility: 5970 µg/mL
[3]; H2O, 4 hours, listed as Crystal form A ofp-toluenesulfonate salt, 240 min
  S: solubility: 6130 µg/mL
[3]; H2O, 24 hours, listed as Crystal form A ofp-toluenesulfonate salt, 1440 min
  S: solubility: 5750 µg/mL
[3]; SGF, 1 hour, listed as Crystal form A ofp-toluenesulfonate salt, 60 min
  S: solubility: 9410 µg/mL
[3]; SGF, 4 hours, listed as Crystal form A ofp-toluenesulfonate salt, 240 min
  S: solubility: 9460 µg/mL
[3]; SGF, 24 hours, listed as Crystal form A ofp-toluenesulfonate salt, 1440 min
  S: solubility: 8970 µg/mL
[3]; FaSSIF, 1 hour, listed as Crystal form A ofp-toluenesulfonate salt
  pH: 6.0
[3]; FaSSIF, 4 hours, listed as Crystal form A ofp-toluenesulfonate salt
  pH: 6.1
[3]; FaSSIF, 24 hours, listed as Crystal form A ofp-toluenesulfonate salt
  pH: 6.1
[3]; FeSSIF, 1 hour, listed as Crystal form A ofp-toluenesulfonate salt
  pH: 4.9
[3]; FeSSIF, 4 hours, listed as Crystal form A ofp-toluenesulfonate salt
  pH: 4.9
[3]; FeSSIF, 24 hours, listed as Crystal form A ofp-toluenesulfonate salt
  pH: 4.9
[3]; H2O, 1 hour, listed as Crystal form A ofp-toluenesulfonate salt
  pH: 5.3
[3]; H2O, 4 hours, listed as Crystal form A ofp-toluenesulfonate salt
  pH: 5.4
[3]; H2O, 24 hours, listed as Crystal form A ofp-toluenesulfonate salt
  pH: 5.2
[3]; SGF, 1 hour, listed as Crystal form A ofp-toluenesulfonate salt
  pH: 3.3
[3]; SGF, 4 hours, listed as Crystal form A ofp-toluenesulfonate salt
  pH: 3.3
[3]; SGF, 24 hours, listed as Crystal form A ofp-toluenesulfonate salt
  pH: 3.3

## Cc1cc(OCCN2C[C@H]3COC[C@H]3C2)ccc1-c1ccc(CC(=O)NCc2ccccc2)nc1 [Crystal form A of benzenesulfonate salt]
[1]; listed as crystal form A of the benzenesulfonate salt
  hygroscopicity: slightly hygroscopic
[2]; 25°C/60%RH/open, 1 week
  Purity (area%): 97.61 area%
  Relative to initial (%): 99.8%
  Crystal form: Crystal form A of benzenesulfonate salt
[2]; 40°C/75%RH/open, 1 week
  Purity (area%): 97.61 area%
  Relative to initial (%): 99.8%
  Crystal form: Crystal form A of benzenesulfonate salt
[2]; Initial
  Purity (area%): 97.78 area%
[3]; FaSSIF, 1 hour, 60 min
  S: solubility: 3980 µg/mL
[3]; FaSSIF, 4 hours, 240 min
  S: solubility: 3640 µg/mL
[3]; FaSSIF, 24 hours, 1440 min
  S: solubility: 3550 µg/mL
[3]; FeSSIF, 1 hour, 60 min
  S: solubility: 3150 µg/mL
[3]; FeSSIF, 4 hours, 240 min
  S: solubility: 2890 µg/mL
[3]; FeSSIF, 24 hours, 1440 min
  S: solubility: 2910 µg/mL
[3]; H2O, 1 hour, 60 min
  S: solubility: 8290 µg/mL
[3]; H2O, 4 hours, 240 min
  S: solubility: 8390 µg/mL
[3]; H2O, 24 hours, 1440 min
  S: solubility: 8120 µg/mL
[3]; SGF, 1 hour, 60 min
  S: solubility: 9940 µg/mL
[3]; SGF, 4 hours, 240 min
  S: solubility: 9950 µg/mL
[3]; SGF, 24 hours, 1440 min
  S: solubility: 9700 µg/mL
[3]; FaSSIF, 1 hour
  pH: 6.1
[3]; FaSSIF, 4 hours
  pH: 6.1
[3]; FaSSIF, 24 hours
  pH: 6.1
[3]; FeSSIF, 1 hour
  pH: 4.9
[3]; FeSSIF, 4 hours
  pH: 4.9
[3]; FeSSIF, 24 hours
  pH: 4.9
[3]; H2O, 1 hour
  pH: 5.6
[3]; H2O, 4 hours
  pH: 5.6
[3]; H2O, 24 hours
  pH: 5.6
[3]; SGF, 1 hour
  pH: 3.4
[3]; SGF, 4 hours
  pH: 3.5
[3]; SGF, 24 hours
  pH: 3.5

## Cc1cc(OCCN2C[C@H]3COC[C@H]3C2)ccc1-c1ccc(CC(=O)NCc2ccccc2)nc1 [Crystal form A of phosphate salt]
[4]; heating to 150°C under nitrogen, cooling to 30°C, exposing to air
  crystal form after heating: conversion to free form crystal form B
[4]; purging under N2 for 20 min
  crystal form after purging: remained unchanged
[1]; listed as crystal form A of the phosphate salt
  hygroscopicity: rapidly dehydrates below 10% RH
[2]; 25°C/60%RH/open, 1 week
  Purity (area%): 97.84 area%
  Relative to initial (%): 100.2%
  Crystal form: Crystal form A of phosphate salt
[2]; 40°C/75%RH/open, 1 week
  Purity (area%): 97.55 area%
  Relative to initial (%): 99.9%
  Crystal form: Crystal form A of phosphate salt
[2]; Initial
  Purity (area%): 97.62 area%
[3]; FaSSIF, 1 hour, 60 min
  S: solubility: 6630 µg/mL
[3]; FaSSIF, 4 hours, 240 min
  S: solubility: 6320 µg/mL
[3]; FaSSIF, 24 hours, 1440 min
  S: solubility: 6140 µg/mL
[3]; FeSSIF, 1 hour, 60 min
  S: solubility: 5130 µg/mL
[3]; FeSSIF, 4 hours, 240 min
  S: solubility: 4120 µg/mL
[3]; FeSSIF, 24 hours, 1440 min
  S: solubility: 3730 µg/mL
[3]; H2O, 1 hour, 60 min
  S: solubility: 9830 µg/mL
[3]; H2O, 4 hours, 240 min
  S: solubility: 9650 µg/mL
[3]; H2O, 24 hours, 1440 min
  S: solubility: 9120 µg/mL
[3]; SGF, 1 hour, 60 min
  S: solubility: 9140 µg/mL
[3]; SGF, 4 hours, 240 min
  S: solubility: 9670 µg/mL
[3]; SGF, 24 hours, 1440 min
  S: solubility: 9070 µg/mL
[3]; FaSSIF, 1 hour
  pH: 5.9
[3]; FaSSIF, 4 hours
  pH: 5.9
[3]; FaSSIF, 24 hours
  pH: 5.9
[3]; FeSSIF, 1 hour
  pH: 4.9
[3]; FeSSIF, 4 hours
  pH: 4.9
[3]; FeSSIF, 24 hours
  pH: 4.9
[3]; H2O, 1 hour
  pH: 5.3
[3]; H2O, 4 hours
  pH: 5.4
[3]; H2O, 24 hours
  pH: 5.3
[3]; SGF, 1 hour
  pH: 3.4
[3]; SGF, 4 hours
  pH: 3.4
[3]; SGF, 24 hours
  pH: 3.4

## Cc1cc(OCCN2C[C@H]3COC[C@H]3C2)ccc1-c1ccc(CC(=O)NCc2ccccc2)nc1 [Crystal form B of oxalate salt]
[1]; listed as crystal form B of the oxalate salt
  hygroscopicity: slightly hygroscopic
[2]; 25°C/60%RH/open, 1 week
  Purity (area%): 97.49 area%
  Relative to initial (%): 100.0%
  Crystal form: Crystal form B of oxalate salt
[2]; 40°C/75%RH/open, 1 week
  Purity (area%): 97.52 area%
  Relative to initial (%): 100.1%
  Crystal form: Crystal form B of oxalate salt
[2]; Initial
  Purity (area%): 97.47 area%
[3]; FaSSIF, 1 hour, 60 min
  S: solubility: 9270 µg/mL
[3]; FaSSIF, 4 hours, 240 min
  S: solubility: 8890 µg/mL
[3]; FaSSIF, 24 hours, 1440 min
  S: solubility: 8470 µg/mL
[3]; FeSSIF, 1 hour, 60 min
  S: solubility: 3800 µg/mL
[3]; FeSSIF, 4 hours, 240 min
  S: solubility: 3660 µg/mL
[3]; FeSSIF, 24 hours, 1440 min
  S: solubility: 3480 µg/mL
[3]; H2O, 1 hour, 60 min
  S: solubility: 9650 µg/mL
[3]; H2O, 4 hours, 240 min
  S: solubility: 9650 µg/mL
[3]; H2O, 24 hours, 1440 min
  S: solubility: 9360 µg/mL
[3]; SGF, 1 hour, 60 min
  S: solubility: 9990 µg/mL
[3]; SGF, 4 hours, 240 min
  S: solubility: 9790 µg/mL
[3]; SGF, 24 hours, 1440 min
  S: solubility: 9610 µg/mL
[3]; FaSSIF, 1 hour
  pH: 4.2
[3]; FaSSIF, 4 hours
  pH: 4.2
[3]; FaSSIF, 24 hours
  pH: 4.2
[3]; FeSSIF, 1 hour
  pH: 4.7
[3]; H2O, 1 hour
  pH: 3.8
[3]; H2O, 4 hours
  pH: 3.8
[3]; H2O, 24 hours
  pH: 3.9
[3]; SGF, 1 hour
  pH: 3.1
[3]; SGF, 4 hours
  pH: 3.1
[3]; SGF, 24 hours
  pH: 3.1
